Patent US20100041089A1, “IMPROVED METHOD FOR DETECTING CHEMICAL […]” (priority 2006, published 2010)

Test system: yeast genes (expressed mRNA)
Assay: DNA chip measurement of expressed mRNA of yeast genes after culture with a toxic chemical substance
Format: cell-based, Saccharomyces cerevisiae S288C
Details: for level of expressed mRNA in the presence of chemical substance / level in the absence of chemical substance: cultured two hours with the chemical substance; for The level of expressed mRNA in the presence of chemical substance/The level of expressed mRNA in the absence of chemical substance: cultured two hours with substance
How it was run: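 Expression is given as treated/untreated fluorescence ratio on a whole-genome yeast DNA chip, a ratio of two or more being significant. Log-phase S288C cultures in YPD at 25 °C received the chemical for 2 h at a dose that slows growth without killing. mRNA was reverse-transcribed with Cy3- or Cy5-dUTP.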

With [Cl][Cd][Cl] [(2), CdCl2] the “The level of expressed mRNA in the presence of chemical substance/The level of expressed mRNA in the absence of chemical substance, yeast gene YBR036C” value (gene YBR036C, Metabolism protein genes, DNA chip fluorescence ratio) was 1.7, the “The level of expressed mRNA in the presence of chemical substance/The level of expressed mRNA in the absence of chemical substance, yeast gene YBR298C” value (gene YBR298C, Metabolism protein genes, DNA chip fluorescence ratio) was 1.0 and the “The level of expressed mRNA in the presence of chemical substance/The level of expressed mRNA in the absence of chemical substance, yeast gene YDL067C” value (gene YDL067C (mitochondria-located protein gene), yeast cultured two hours with chemical substance, DNA chip fluorescence ratio to control) was 1.0. The “The level of expressed mRNA in the presence of chemical substance/The level of expressed mRNA in the absence of chemical substance, yeast gene YDL078C” value (gene YDL078C, Metabolism protein genes, DNA chip fluorescence ratio) was 1.1, the “The level of expressed mRNA in the presence of chemical substance/The level of expressed mRNA in the absence of chemical substance, yeast gene YDL215C” value (gene YDL215C, Metabolism protein genes, DNA chip fluorescence ratio) was 1.5 and the “The level of expressed mRNA in the presence of chemical substance/The level of expressed mRNA in the absence of chemical substance, yeast gene YDR079W” value (gene YDR079W (mitochondria-located protein gene), yeast cultured two hours with chemical substance, DNA chip fluorescence ratio to control) was 1.1. For the same compound, the “The level of expressed mRNA in the presence of chemical substance/The level of expressed mRNA in the absence of chemical substance, yeast gene YDR297W” value (gene YDR297W, Metabolism protein genes, DNA chip fluorescence ratio) was 0.8, the “The level of expressed mRNA in the presence of chemical substance/The level of expressed mRNA in the absence of chemical substance, yeast gene YDR387C” value (gene YDR387C, Metabolism protein genes, DNA chip fluorescence ratio) was 0.9 and the “The level of expressed mRNA in the presence of chemical substance/The level of expressed mRNA in the absence of chemical substance, yeast gene YGL035C” value (gene YGL035C, Metabolism protein genes, DNA chip fluorescence ratio) was 1.4. The “The level of expressed mRNA in the presence of chemical substance/The level of expressed mRNA in the absence of chemical substance, yeast gene YGR062C” value (gene YGR062C (mitochondria-located protein gene), yeast cultured two hours with chemical substance, DNA chip fluorescence ratio to control) was 1.0, the “The level of expressed mRNA in the presence of chemical substance/The level of expressed mRNA in the absence of chemical substance, yeast gene YGR287C” value (gene YGR287C, Metabolism protein genes, DNA chip fluorescence ratio) was 1.0 and the “The level of expressed mRNA in the presence of chemical substance/The level of expressed mRNA in the absence of chemical substance, yeast gene YJL070C” value (gene YJL070C, Metabolism protein genes, DNA chip fluorescence ratio) was 0.9. The “The level of expressed mRNA in the presence of chemical substance/The level of expressed mRNA in the absence of chemical substance, yeast gene YJL096W” value (gene YJL096W (mitochondria-located protein gene), yeast cultured two hours with chemical substance, DNA chip fluorescence ratio to control) was 1.0, the “The level of expressed mRNA in the presence of chemical substance/The level of expressed mRNA in the absence of chemical substance, yeast gene YJL180C” value (gene YJL180C (mitochondria-located protein gene), yeast cultured two hours with chemical substance, DNA chip fluorescence ratio to control) was 1.6 and the “The level of expressed mRNA in the presence of chemical substance/The level of expressed mRNA in the absence of chemical substance, yeast gene YKR009C” value (gene YKR009C, Metabolism protein genes, DNA chip fluorescence ratio) was 1.2. For the same compound, the “The level of expressed mRNA in the presence of chemical substance/The level of expressed mRNA in the absence of chemical substance, yeast gene YLR295C” value (gene YLR295C (mitochondria-located protein gene), yeast cultured two hours with chemical substance, DNA chip fluorescence ratio to control) was 1.1, the “The level of expressed mRNA in the presence of chemical substance/The level of expressed mRNA in the absence of chemical substance, yeast gene YLR351C” value (gene YLR351C, Metabolism protein genes, DNA chip fluorescence ratio) was 1.4 and the “The level of expressed mRNA in the presence of chemical substance/The level of expressed mRNA in the absence of chemical substance, yeast gene YLR375W” value (gene YLR375W, Metabolism protein genes, DNA chip fluorescence ratio) was 1.5. For the same compound, the “The level of expressed mRNA in the presence of chemical substance/The level of expressed mRNA in the absence of chemical substance, yeast gene YMR023C” value (gene YMR023C (mitochondria-located protein gene), yeast cultured two hours with chemical substance, DNA chip fluorescence ratio to control) was 1.3, the “The level of expressed mRNA in the presence of chemical substance/The level of expressed mRNA in the absence of chemical substance, yeast gene YMR267W” value (gene YMR267W (mitochondria-located protein gene), yeast cultured two hours with chemical substance, DNA chip fluorescence ratio to control) was 1.8 and the “The level of expressed mRNA in the presence of chemical substance/The level of expressed mRNA in the absence of chemical substance, yeast gene YMR267W” value (gene YMR267W, Metabolism protein genes, DNA chip fluorescence ratio) was 1.8. For the same compound, the “The level of expressed mRNA in the presence of chemical substance/The level of expressed mRNA in the absence of chemical substance, yeast gene YMR278W” value (gene YMR278W, Metabolism protein genes, DNA chip fluorescence ratio) was 1.7, the “The level of expressed mRNA in the presence of chemical substance/The level of expressed mRNA in the absence of chemical substance, yeast gene YMR293C” value (gene YMR293C, Metabolism protein genes, DNA chip fluorescence ratio) was 1.5 and the “The level of expressed mRNA in the presence of chemical substance/The level of expressed mRNA in the absence of chemical substance, yeast gene YNL073W” value (gene YNL073W (mitochondria-located protein gene), yeast cultured two hours with chemical substance, DNA chip fluorescence ratio to control) was 1.4. The “The level of expressed mRNA in the presence of chemical substance/The level of expressed mRNA in the absence of chemical substance, yeast gene YNR072W” value (gene YNR072W, Metabolism protein genes, DNA chip fluorescence ratio) was 1.5, the “The level of expressed mRNA in the presence of chemical substance/The level of expressed mRNA in the absence of chemical substance, yeast gene YOL096C” value (gene YOL096C, Metabolism protein genes, DNA chip fluorescence ratio) was 1.0 and the “The level of expressed mRNA in the presence of chemical substance/The level of expressed mRNA in the absence of chemical substance, yeast gene YOR180C” value (gene YOR180C, Metabolism protein genes, DNA chip fluorescence ratio) was 1.1. For the same compound, the “The level of expressed mRNA in the presence of chemical substance/The level of expressed mRNA in the absence of chemical substance, yeast gene YOR316C” value (gene YOR316C (mitochondria-located protein gene), yeast cultured two hours with chemical substance, DNA chip fluorescence ratio to control) was 2.5, the “The level of expressed mRNA in the presence of chemical substance/The level of expressed mRNA in the absence of chemical substance, yeast gene YOR363C” value (gene YOR363C, Metabolism protein genes, DNA chip fluorescence ratio) was 2.0 and the “The level of expressed mRNA in the presence of chemical substance/The level of expressed mRNA in the absence of chemical substance, yeast gene YPL040C” value (gene YPL040C (mitochondria-located protein gene), yeast cultured two hours with chemical substance, DNA chip fluorescence ratio to control) was 1.0. For the same compound, the “The level of expressed mRNA in the presence of chemical substance/The level of expressed mRNA in the absence of chemical substance, yeast gene YPL134C” value (gene YPL134C (mitochondria-located protein gene), yeast cultured two hours with chemical substance, DNA chip fluorescence ratio to control) was 1.0, the “The level of expressed mRNA in the presence of chemical substance/The level of expressed mRNA in the absence of chemical substance, yeast gene YPR184W” value (gene YPR184W, Metabolism protein genes, DNA chip fluorescence ratio) was 1.4 and the “level of expressed mRNA in the presence of chemical substance / level in the absence of chemical substance” value (yeast gene YAL018C) was 1.9. The “The level of expressed mRNA in the presence of chemical substance/The level of expressed mRNA in the absence of chemical substance” value (yeast gene YAL053W) was 0.9, the “level of expressed mRNA in the presence of chemical substance / level in the absence of chemical substance” value (yeast gene YAR047C) was 1.7 and the “level of expressed mRNA in the presence of chemical substance / level in the absence of chemical substance” value (yeast gene YAR064W) was 0.9. The “level of expressed mRNA in the presence of chemical substance / level in the absence of chemical substance” value (yeast gene YBL044W) was 2.7, the “The level of expressed mRNA in the presence of chemical substance/The level of expressed mRNA in the absence of chemical substance” value (yeast gene YBL048W) was 7.9 and the “The level of expressed mRNA in the presence of chemical substance/The level of expressed mRNA in the absence of chemical substance” value (yeast gene YBL107C) was 1.1. The “level of expressed mRNA in the presence of chemical substance / level in the absence of chemical substance” value (yeast gene YBR012C) was 1.7, the “level of expressed mRNA in the presence of chemical substance / level in the absence of chemical substance” value (yeast gene YBR066C) was 1.3 and the “level of expressed mRNA in the presence of chemical substance / level in the absence of chemical substance” value (yeast gene YBR124W) was 1.4. The “level of expressed mRNA in the presence of chemical substance / level in the absence of chemical substance” value (yeast gene YBR162C) was 0.5, the “level of expressed mRNA in the presence of chemical substance / level in the absence of chemical substance” value (yeast gene YBR287W) was 1.9 and the “level of expressed mRNA in the presence of chemical substance / level in the absence of chemical substance” value (yeast gene YCL042W) was 2.5. The “level of expressed mRNA in the presence of chemical substance / level in the absence of chemical substance” value (yeast gene YCL056C) was 1.4, the “level of expressed mRNA in the presence of chemical substance / level in the absence of chemical substance” value (yeast gene YCR007C) was 1.6 and the “level of expressed mRNA in the presence of chemical substance / level in the absence of chemical substance” value (yeast gene YDL046W) was 1.4. For the same compound, the “The level of expressed mRNA in the presence of chemical substance/The level of expressed mRNA in the absence of chemical substance” value (yeast gene YDL072C) was 1.1, the “The level of expressed mRNA in the presence of chemical substance/The level of expressed mRNA in the absence of chemical substance” value (yeast gene YDL204W) was 1.9 and the “The level of expressed mRNA in the presence of chemical substance/The level of expressed mRNA in the absence of chemical substance” value (yeast gene YDL222C) was 1.1. The “level of expressed mRNA in the presence of chemical substance / level in the absence of chemical substance” value (yeast gene YDR090C) was 3.0.
